ChEMBL document CHEMBL1152685, “Structural basis of the selectivity of the beta(2)-adrenergic receptor for fluorinated catecholamines” (Bioorg Med Chem, 2009)

Tests used:
[1] = molecular target: Beta-2 adrenergic receptor (Homo sapiens, UniProt P07550, N293A); experiment: Displacement of [3H]dihydroalprenolol from human adrenergic beta2 receptor N293A mutant expressed in COS7 cell membrane
[2] = molecular target: Beta-2 adrenergic receptor (Homo sapiens, UniProt P07550, N293L); experiment: Displacement of [3H]dihydroalprenolol from human adrenergic beta2 receptor N293L mutant expressed in COS7 cell membrane
Chain of Beta-2 adrenergic receptor (Homo sapiens, UniProt P07550, N293L) (P07550 whole entry N293L): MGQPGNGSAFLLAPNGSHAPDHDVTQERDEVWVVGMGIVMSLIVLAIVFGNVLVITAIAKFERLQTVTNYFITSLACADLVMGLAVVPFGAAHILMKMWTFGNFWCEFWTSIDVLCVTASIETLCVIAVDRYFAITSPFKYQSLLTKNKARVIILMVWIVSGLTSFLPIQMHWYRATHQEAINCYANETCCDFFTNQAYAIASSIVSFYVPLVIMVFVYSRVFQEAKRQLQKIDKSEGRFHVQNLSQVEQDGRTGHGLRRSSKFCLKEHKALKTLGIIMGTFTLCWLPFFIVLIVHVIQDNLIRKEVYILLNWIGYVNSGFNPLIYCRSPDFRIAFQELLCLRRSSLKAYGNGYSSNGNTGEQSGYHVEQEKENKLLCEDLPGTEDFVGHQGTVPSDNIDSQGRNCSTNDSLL

[3] = molecular target: Beta-2 adrenergic receptor (Homo sapiens, UniProt P07550, N293F); experiment: Displacement of [3H]dihydroalprenolol from human adrenergic beta2 receptor N293F mutant expressed in COS7 cell membrane
Chain of Beta-2 adrenergic receptor (Homo sapiens, UniProt P07550, N293F) (P07550 whole entry N293F): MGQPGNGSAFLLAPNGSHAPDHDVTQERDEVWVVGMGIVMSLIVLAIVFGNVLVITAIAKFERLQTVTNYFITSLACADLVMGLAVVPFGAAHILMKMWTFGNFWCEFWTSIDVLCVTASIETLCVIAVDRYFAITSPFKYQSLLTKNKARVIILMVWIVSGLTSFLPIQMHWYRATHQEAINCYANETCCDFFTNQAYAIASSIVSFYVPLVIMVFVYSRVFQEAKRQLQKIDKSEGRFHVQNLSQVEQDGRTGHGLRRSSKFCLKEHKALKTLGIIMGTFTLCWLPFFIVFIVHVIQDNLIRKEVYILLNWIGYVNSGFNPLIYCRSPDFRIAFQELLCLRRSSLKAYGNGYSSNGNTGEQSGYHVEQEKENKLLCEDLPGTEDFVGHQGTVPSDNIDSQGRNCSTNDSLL

[4] = molecular target: Beta-2 adrenergic receptor (Homo sapiens, UniProt P07550); experiment: Displacement of [3H]dihydroalprenolol from human adrenergic beta2 receptor expressed in COS7 cell membrane
Chain of Beta-2 adrenergic receptor (Homo sapiens, UniProt P07550) (P07550 whole entry): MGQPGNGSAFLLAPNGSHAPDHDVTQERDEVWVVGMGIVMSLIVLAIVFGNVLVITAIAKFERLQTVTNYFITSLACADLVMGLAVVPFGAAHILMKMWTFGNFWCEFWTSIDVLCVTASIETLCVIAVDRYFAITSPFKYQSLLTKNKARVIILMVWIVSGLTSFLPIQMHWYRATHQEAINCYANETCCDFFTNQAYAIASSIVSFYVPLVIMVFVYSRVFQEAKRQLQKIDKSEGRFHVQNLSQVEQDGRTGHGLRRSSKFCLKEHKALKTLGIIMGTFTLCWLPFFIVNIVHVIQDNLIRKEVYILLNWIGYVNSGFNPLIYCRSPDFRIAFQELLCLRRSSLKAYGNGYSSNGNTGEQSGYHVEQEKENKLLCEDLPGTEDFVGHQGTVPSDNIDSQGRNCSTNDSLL

[5] = molecular target: Beta-2 adrenergic receptor (Homo sapiens, UniProt P07550, D192G/F193V); experiment: Displacement of [3H]dihydroalprenolol from human adrenergic beta2 receptor D192G, F193V mutant expressed in COS7 cell membrane
Chain of Beta-2 adrenergic receptor (Homo sapiens, UniProt P07550, D192G/F193V) (P07550 whole entry D192G/F193V): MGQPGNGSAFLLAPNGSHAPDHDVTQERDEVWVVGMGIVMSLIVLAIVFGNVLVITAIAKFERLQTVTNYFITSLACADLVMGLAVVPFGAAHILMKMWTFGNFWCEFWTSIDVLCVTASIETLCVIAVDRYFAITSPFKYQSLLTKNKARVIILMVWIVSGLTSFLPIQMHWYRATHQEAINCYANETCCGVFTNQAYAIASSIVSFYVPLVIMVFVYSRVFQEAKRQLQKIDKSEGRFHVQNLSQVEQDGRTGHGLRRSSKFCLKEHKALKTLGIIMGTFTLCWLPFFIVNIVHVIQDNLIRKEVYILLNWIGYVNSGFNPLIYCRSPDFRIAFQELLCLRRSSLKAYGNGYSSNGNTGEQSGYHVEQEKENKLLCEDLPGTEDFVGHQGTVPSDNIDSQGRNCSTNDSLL

[6] = molecular target: Beta-2 adrenergic receptor (Homo sapiens, UniProt P07550, N293Q); experiment: Displacement of [3H]dihydroalprenolol from human adrenergic beta2 receptor N293Q mutant expressed in COS7 cell membrane
Chain of Beta-2 adrenergic receptor (Homo sapiens, UniProt P07550, N293Q) (P07550 whole entry N293Q): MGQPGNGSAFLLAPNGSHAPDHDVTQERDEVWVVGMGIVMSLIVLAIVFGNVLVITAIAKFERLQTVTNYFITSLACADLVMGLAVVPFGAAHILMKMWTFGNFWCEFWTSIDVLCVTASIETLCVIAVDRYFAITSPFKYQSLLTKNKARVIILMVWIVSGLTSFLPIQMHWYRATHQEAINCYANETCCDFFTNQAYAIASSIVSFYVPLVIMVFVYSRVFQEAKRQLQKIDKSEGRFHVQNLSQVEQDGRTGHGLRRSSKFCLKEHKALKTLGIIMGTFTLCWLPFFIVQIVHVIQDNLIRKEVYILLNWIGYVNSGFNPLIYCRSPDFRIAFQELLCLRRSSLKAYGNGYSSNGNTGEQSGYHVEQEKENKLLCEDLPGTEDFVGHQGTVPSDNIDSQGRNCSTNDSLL

[7] = molecular target: Beta-2 adrenergic receptor (Homo sapiens, UniProt P07550, V117C); experiment: Displacement of [3H]dihydroalprenolol from human adrenergic beta2 receptor V117C mutant expressed in COS7 cell membrane
Chain of Beta-2 adrenergic receptor (Homo sapiens, UniProt P07550, V117C) (P07550 whole entry V117C): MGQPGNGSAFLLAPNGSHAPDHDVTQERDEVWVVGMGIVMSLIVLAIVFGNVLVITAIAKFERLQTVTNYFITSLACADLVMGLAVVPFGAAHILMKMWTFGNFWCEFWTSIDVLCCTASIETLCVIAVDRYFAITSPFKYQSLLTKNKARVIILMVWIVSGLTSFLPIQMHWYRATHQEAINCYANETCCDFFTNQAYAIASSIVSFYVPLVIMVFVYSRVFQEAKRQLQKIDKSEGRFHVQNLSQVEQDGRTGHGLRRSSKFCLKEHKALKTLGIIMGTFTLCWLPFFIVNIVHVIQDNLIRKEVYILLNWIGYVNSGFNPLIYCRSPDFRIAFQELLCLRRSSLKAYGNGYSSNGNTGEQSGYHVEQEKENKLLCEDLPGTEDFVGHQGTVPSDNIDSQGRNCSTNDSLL

Chain of Beta-2 adrenergic receptor (Homo sapiens, UniProt P07550, N293A) (P07550 whole entry N293A): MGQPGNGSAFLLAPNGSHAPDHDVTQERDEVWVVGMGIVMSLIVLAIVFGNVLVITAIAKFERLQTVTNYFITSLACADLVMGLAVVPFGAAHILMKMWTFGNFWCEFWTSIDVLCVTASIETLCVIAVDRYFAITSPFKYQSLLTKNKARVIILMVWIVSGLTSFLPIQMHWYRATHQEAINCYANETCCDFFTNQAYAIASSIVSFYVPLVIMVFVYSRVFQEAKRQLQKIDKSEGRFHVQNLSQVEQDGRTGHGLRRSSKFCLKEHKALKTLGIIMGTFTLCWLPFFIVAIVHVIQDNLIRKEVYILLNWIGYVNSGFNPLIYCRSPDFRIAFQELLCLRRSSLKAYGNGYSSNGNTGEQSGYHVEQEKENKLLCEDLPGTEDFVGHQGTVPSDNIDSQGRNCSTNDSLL

| SMILES | Ki [1] | Ki [2] | Ki [3] | Ki [4] | Ki [5] | Ki [6] | Ki [7] |
| --- | --- | --- | --- | --- | --- | --- | --- |
| NC[C@H](O)c1ccc(O)c(O)c1F | 5450 µM | 188 µM | 70.1 µM | 1160 µM | > 2000 µM | 3330 µM | > 2000 µM |
| NC[C@H](O)c1cc(O)c(O)cc1F | 319 µM | 117 µM | 216 µM | 15.8 µM | 19.5 µM | 68.9 µM | 39.8 µM |
